Legend:
[1] = target: T1, HCV NS3/4A protease complexes (full-length hepatitis C NS3 protease enzyme with NS4A cofactor) (Hepatitis C virus genotype 1a, UniProt P27958); test: Inhibition assay (enzymatic assay, depsipeptide substrate hydrolysis); type: biochemical; conditions: enzyme 1 nM, 25 μM NS4A cofactor, 0.5 μM substrate, 30° C., pH 7.5, model for competitive inhibition
T1 construct: full-length hepatitis C NS3 protease enzyme
Protocol: [Landro, 1997 #Biochem 36 9340-9348]. […] The solutions were stored at −20° C. between measurements.
[Liu, 1999 Analytical Biochemistry 267 331-335].

[2] = tested on: HCV replicons (HCV type 1b, Huh-7 luc/neo cells); test: Replicon assay (Huh-Luc cells, luciferase read-out); type: cell-based; conditions: Hepatitis C virus, Huh-7, 72 h, Huh-Luc cells, incubation of three days, luciferase activity
Excerpt: The compounds of formula (I) were examined for activity in the inhibition of HCV RNA replication in a cellular assay. […] The cellular assay was based on a bicistronic expression construct, as described by Lohmann et al. (1999) Science vol. 285 pp. 110-113 with modifications described by Krieger et al. (2001) Journal of Virology 75: 4614-4624, in a multi-target screening strategy. In essence, the method was as follows.
The assay utilized the stably transfected cell line Huh-7 luc/neo (hereafter referred to as Huh-Luc). This cell line harbors an RNA encoding a bicistronic expression construct comprising the wild type NS3-NS5B regions of HCV type 1b translated from an Internal Ribosome Entry Site (IRES) from encephalomyocarditis virus (EMCV), preceded by a reporter portion (FfL-luciferase), and a selectable marker portion (neo^R, neomycine phosphotransferase). The construct is bordered by 5′ and 3′ NTRs (non-translated regions) from HCV type 1b. Continued culture of the replicon cells in the presence of G418 (neo^R) is dependent on the replication of the HCV RNA. The stably transfected replicon cells that express HCV RNA, which replicates autonomously and to high levels, encoding inter alia luciferase, are used for screening the antiviral compounds.
The replicon cells were plated in 384 well plates in the presence of the test and control compounds which were added in various concentrations. Following an incubation of three days, HCV replication was measured by assaying luciferase activity (using standard luciferase assay substrates and reagents and a Perkin Elmer ViewLux™ ultraHTS microplate imager). Replicon cells in the control cultures have high luciferase expression in the absence of any inhibitor. The inhibitory activity of the compound on luciferase activity was monitored on the Huh-Luc cells, enabling a doseresponse curve for each test compound.

T1 sequence (P27958 1027-1657, one chain of several): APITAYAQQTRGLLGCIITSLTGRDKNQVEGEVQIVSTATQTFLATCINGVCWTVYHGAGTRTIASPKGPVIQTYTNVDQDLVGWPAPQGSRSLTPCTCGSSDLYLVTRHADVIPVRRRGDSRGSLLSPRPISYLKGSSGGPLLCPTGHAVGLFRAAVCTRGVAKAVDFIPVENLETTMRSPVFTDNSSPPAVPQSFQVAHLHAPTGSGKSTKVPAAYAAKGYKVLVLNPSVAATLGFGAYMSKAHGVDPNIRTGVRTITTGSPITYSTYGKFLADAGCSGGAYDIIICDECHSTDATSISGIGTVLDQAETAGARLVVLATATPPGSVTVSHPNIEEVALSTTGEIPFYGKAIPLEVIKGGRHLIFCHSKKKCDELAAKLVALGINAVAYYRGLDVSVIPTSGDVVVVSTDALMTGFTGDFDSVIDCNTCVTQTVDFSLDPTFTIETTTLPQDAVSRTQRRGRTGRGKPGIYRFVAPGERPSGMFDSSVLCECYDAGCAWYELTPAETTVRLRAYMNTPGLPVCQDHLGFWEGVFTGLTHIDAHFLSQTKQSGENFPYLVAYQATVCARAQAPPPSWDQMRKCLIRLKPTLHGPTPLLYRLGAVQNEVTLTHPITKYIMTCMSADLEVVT

`COc1ccc2c(OC3CC4C(=O)NC5(C(=O)O)CC5C=CCCCCN(C)C(=O)C4C3)nc(-c3nc(C4CC4)cs3)cc2c1` (centres unmarked) [Compound 29, 17-[3-(4-cyclopropylthiazol-2-yl)-6-methoxy-isoquinolin-1-yloxy]-13-methyl-2,14-dioxo-3,13-diazatricyclo[13.3.0.0^4,6]octadec-7-ene-4-carboxylic acid] was tested, and the Ki [1] was 150 nM and the EC50 [2] was over 10000 nM.
Molecule `COc1ccc2c(O[C@@H]3C[C@H]4C(=O)N[C@]5(C(=O)NS(=O)(=O)C6CC6)C[C@H]5/C=C\CCCCN(C)C(=O)[C@@H]4C3)nc(-c3nc(C4CC4)cs3)cc2c1` [Compound 30, N-[17-[3-(4-cyclopropylthiazol-2-yl)-6-methoxyisoquinolin-1-yloxy]-13-methyl-2,14-dioxo-3,13-diazatricyclo[13.3.0.0^4,6]octadec-7-ene-4-carbonyl](cyclopropyl)sulfonamide] has a Ki [1] of 1.7 nM and an EC50 [2] of 3030 nM.
`COc1ccc2c(O[C@@H]3C[C@H]4C(=O)N[C@]5(C(=O)O)C[C@H]5/C=C\CCCCN(C)C(=O)N4C3)nccc2c1Br` [Compound 50, 17-(5-bromo-6-methoxyisoquinolin-1-yloxy)-13-methyl-2,14-dioxo-3,13,15-triazatricyclo[13.3.0.0^4,6]octadec-7-ene-4-carboxylic acid] gave a Ki [1] of over 1000 nM.
In the case of `COc1ccc2c(O[C@@H]3C[C@H]4C(=O)N[C@]5(C(=O)NS(=O)(=O)C6CC6)C[C@H]5/C=C\CCCCN(C)C(=O)N4C3)nccc2c1-c1ccc(C)nc1` [Compound 52], the EC50 [2] is reported as over 10000 nM.
`COc1ccc(-c2c(OC)ccc3c(O[C@@H]4C[C@H]5C(=O)N[C@]6(C(=O)NS(=O)(=O)C7CC7)C[C@H]6/C=C\CCCCN(C)C(=O)N5C4)nccc23)cc1` [Compound 53, N-[17-[5-(4-methoxyphenyl)-6-methoxyisoquinolin-1-yloxy]-13-methyl-2,14-dioxo-3,13,15-triaza-tricyclo[13.3.0.0^4,6]octadec-7-ene-4-carbonyl](cyclopropyl)sulfonamide] showed an EC50 [2] of over 10000 nM.
Molecule `COc1ccc2c(O[C@@H]3C[C@H]4C(=O)N[C@]5(C(=O)NS(=O)(=O)C6CC6)C[C@H]5/C=C\CCCCN(C)C(=O)N4C3)nccc2c1-c1ccccc1` [Compound 54, N-[17-[5-phenyl-6-methoxyisoquinolin-1-yloxy]-13-methyl-2,14-dioxo-3,13,15-triaza-tricyclo[13.3.0.0^4,6]octadec-7-ene-4-carbonyl](cyclopropyl) sulfonamide] has an EC50 [2] of over 10000 nM.
`COc1ccc2c(O[C@@H]3C[C@H]4C(=O)N[C@]5(C(=O)NS(=O)(=O)C6CC6)C[C@H]5/C=C\CCCCN(C)C(=O)N4C3)nc(-c3ccc(OC(F)(F)F)cc3)cc2c1` [Compound 58, N-[17-(3-(4-trifluoromethoxyphenyl)-6-methoxyisoquinolin-1-yloxy)-13-methyl-2,14-dioxo-3,13,15-triaza-tricyclo[13.3.0.0^4,6]octadec-7-ene-4-carbonyl](cyclopropyl)sulfonamide] showed an EC50 [2] of 2310 nM.
For `COc1ccc2c(O[C@@H]3C[C@H]4C(=O)N[C@]5(C(=O)NS(=O)(=O)C6CC6)C[C@H]5/C=C\CCCCN(C)C(=O)N4C3)ncc(Br)c2c1` [Compound 66, N-[17-(4-bromo-6-methoxyisoquinolin-1-yloxy)-13-methyl-2,14-dioxo-3,13,15-triaza-tricyclo[13.3.0.0^4,6]octadec-7-ene-4-carbonyl](cyclopropyl) sulfonamide], the EC50 [2] was 323 nM.
Molecule `COc1ccc2c(O[C@@H]3C[C@H]4C(=O)N[C@]5(C(=O)O)C[C@H]5/C=C\CCCCN(C)C(=O)N4C3)nc(-c3csc(NC(C)C)n3)cc2c1` [Compound 71, 17-[3-(2-isopropylaminothiazol-4-yl)-6-methoxyisoquinolin-1-yloxy]-13-methyl-2,14-dioxo-3,13,15-triaza-tricyclo[13.3.0.0^4,6]octadec-7-ene-4-carboxylic acid] has an EC50 [2] of over 10000 nM.
